According to patent US20240385187A1, “BI-[…] REPORTER PARTICLE AND METHODS FOR MAKING AND USING THE SAME” (The Trustees of Indiana University, priority 2021, published 2024):

Test system: phagosomes of RAW264.7 macrophage cells
Assay: Effect of V-ATPase inhibition on phagosome acidification and proteolysis, monitored in single phagosomes with Janus pH-proteolysis reporter particles
Assay type: cell-based
Conditions: for duration of proteolysis: onset of proteolysis to start of Rhodamine 110 intensity decrease, without ConA 24±10
Method: Dual color imaging started 5 minutes after Janus particle probes were added to cells and lasted for approximately 45 minutes. After particle internalization, the fluorescence intensity of the pH reporter increased first, followed by a similar intensity increase of the proteolysis reporter, indicating the progress of maturation (FIG. 6A). It was noted that some […] slowly diffused into the cell cytoplasm by the end of imaging, causing a slightly elevated fluorescence in the cell. This is expected because small dye molecules can passively diffuse across the phagosome membrane.
ConcanamycinA (ConA), a V-ATPase inhibitor, was added to disrupt acidification of phagosomes and its effect on proteolytic activities was monitored. […] The fluorescence decrease was caused by the continuous diffusion of Rhodamine 110, already in the phagosome lumen prior to the ConA addition, into the cell cytoplasm. After ConA addition, Rhodamine 110 lost by diffusion was not replaced by the generation of more.
To quantify the effect of ConA on proteolysis, duration of proteolysis was measured. In cells without ConA treatment, this was measured as the time from the onset of proteolysis (tproteolysis) to the start of the intensity plateau. In cells treated with ConA, this was measured as the time from the onset of proteolysis (tproteolysis) to the time when the Rhodamine 110 intensity started to decrease (FIG. 7C). Phagosome proteolysis in cells without ConA treatment lasted for 24±10 minutes on average (FIG. 7C). However, the duration of proteolysis was shorted to 16±5 minutes in the presence of 100 nM ConA and 10±4 minutes with 500 nM ConA.
In all phagosomes examined (N=21), proteolysis stopped within a short time after termination of acidification. […] This is consistent with the observation noted above that proteolysis started when the phagosome acidified to a threshold pH of 5.8±0.7. […] With the Janus reporter particle, it was identified that an acidic lumen is a prerequisite for the start of proteolytic activities in phagosomes, and their temporal relationship inside single phagosomes was quantitatively determined; data impossible to obtain by prior methods. Thus the bifunctional Janus pH-proteolysis reporter particle was able to detect both a disruption in phagosome acidification and a disruption in proteolytic activity inside a single phagosome caused by the presence of the V-ATPase inhibitor ConA.
Carboxylate polystyrene particles (500 nm) were purchased from Polysciences (Warrington, PA, USA). CF™ 640R NHS ester (succinimidyl ester), fluorescent peptide Rhodamine 110, bis-(N-CBZ-L-phenylalanyl-L-arginine amide) dihydrochloride (Z-FR-R110) were purchased from Biotium (Fremont, CA, USA). Amine-functionalized polystyrene particle (3 μm), carboxylated fluorophores (500 nm, ex/em 580/605), Alexa Fluor 568 NHS ester (succinimidyl ester), Alexa Fluor 647 NHS ester (succinimidyl ester), pHrodo™ iFL Red STP Ester, EZ-Link™ NHS-Biotin, sulfo-NHS (N-succinimidyl ester), streptavidin, and lipopolysaccharides from Escherichia coli (LPS) were purchased from ThermoFisher Scientific (Waltham, MA, USA). Bovine serum albumin (BSA), trypsin, nigericin sodium salt, and immunoglobulin G (IgG) from rabbit plasma were purchased from MilliporeSigma (St. Louis, MO, USA). 1-(3-Dimethylaminopropyl)-3-ethylcarbodiimide hydrochloride (EDC) was purchased from Alfa Aesar (Haverhill, MA, USA). Biotin pentylamine was purchased from Soltec BioScience (Beveraly MA). Concanamycin A was purchased from Santa Cruz Biotechnology (Dallas, TX, USA). Raw 264.7 macrophage cells were purchased from ATCC (Manassas, VA, USA). Ringer's solution (pH=7.2, 10 mM HEPES, 10 mM glucose, 155 mM NaCl, 2 mM NaH2PO4, 5 mM KCl, 2 mM CaCl2, 1 mM MgCl2) was used for live-cell imaging. Potassium-rich solution (135 mM KCl, 2 mM […], 1.2 mM CaCl2, 0.8 mM MgSO4) was used for intracellular pH calibration. […]

In the case of `C/C=C/[C@H]1O[C@@](O)([C@@H](C)[C@H](O)[C@H](C)[C@H]2OC(=O)/C(OC)=C/C(C)=C/[C@@H](C)[C@@H](O)[C@@H](CC)[C@@H](O)[C@H](C)C/C(C)=C/C=C/[C@@H]2OC)C[C@@H](O[C@H]2C[C@@H](O)[C@H](OC(N)=O)[C@@H](C)O2)[C@@H]1C` [ConA, Concanamycin A], the “phagosome acidification and proteolytic activity” value (100 nM ConA added to cells before the onset of acidification) is reported as “failed to acidify or exhibit proteolytic activities”, the duration of proteolysis (100 nM ConA, N=11) is reported as 16 ± 5 min and the duration of proteolysis (500 nM ConA, N=10) is reported as 10 ± 4 min. The “phagosome proteolysis (Rhodamine 110 fluorescence)” value (ConA added after acidification had started, within minutes after acidification stopped) was “phagosome proteolysis also stopped”, the phagosome acidification (ConA added to cells after acidification had started, lumen pH started to increase) was “stopped acidifying” and the “average pH of single phagosomes at the termination point of proteolysis” value (ConA-treated cells, N=21 phagosomes) was 5.1±0.4.
